Reference: ChEMBL document CHEMBL1125524, “Adenosine A1 antagonists. 2. Structure-activity relationships on diuretic activities and protective effects against acute renal failure” (J Med Chem, 1992)
Values belong to the compound of their own block, whether it stands above or below them.

Assays:
Rattus norvegicus [1] = experiment: Serum creatinine concentration measured after intraperitoneal administration of 10 mg/kg of compound to rats(vehicle 4.98+/-0.08); format: functional
Rattus norvegicus [2] = experiment: Oral diuretic activity was measured after oral administration of 25 mg/kg to rats(control volume is 0.89+/-0.06); format: functional, Urine
Rattus norvegicus [3] = experiment: Percent inhibition of serum creatinine by the compound given as ratio of Cr value in treated to vehicle treated ones after intraperitoneal administration of 10 mg/kg of compound to rats(vehicle 4.98+/-0.08); format: functional; details: ip
Rattus norvegicus [4] = experiment: Ratio of urinary excretion value (urinary volume) in treated rats to that in control rats, at a peroral dose of 25 mg/Kg; format: functional, Urine
Rattus norvegicus [5] = experiment: Ratio of sodium ion/potassium ion concentration in treated rats to that in control rats, at a peroral dose of 25 mg/Kg; format: functional
Rattus norvegicus [6] = experiment: Ratio of urinary excretion value (Na+ concentration) in treated rats to that in control rats, at a peroral dose of 25 mg/Kg; format: functional, Urine
Rattus norvegicus [7] = experiment: Ratio of urinary excretion value (Na+ concentration) in treated rats to that in control rats, at a peroral dose of 6.25 mg/Kg; format: functional, Urine
Rattus norvegicus [8] = experiment: Effect on urinary excretion potassium and sodium after oral administration of 25 mg/kg to rats(potassium and sodium excretion in control rat is […]+/-[…]); format: functional, Urine
Rattus norvegicus [9] = experiment: Urea nitrogen concentration measured after intraperitoneal administration of 10 mg/kg of compound to rats(vehicle 150.7+/-3.4); format: functional
Rattus norvegicus [10] = experiment: Percent inhibition of Urea nitrogen by the compound given as ratio of UN value in treated to vehicle treated ones after intraperitoneal administration of 10 mg/kg of compound to rats(vehicle 150.7+/-3.4); format: functional; details: ip
Rattus norvegicus [11] = experiment: Ratio of urinary excretion value (urinary volume) in treated rats to that in control rats, at a peroral dose of 6.25 mg/Kg; format: functional, Urine
Adenosine A2 receptor = Adenosine A2 receptor (Rattus norvegicus, UniProt P29276+P30543)
Rattus norvegicus [12] = experiment: Serum creatinine concentration measured after intraperitoneal administration of 1 mg/kg of compound to rats(vehicle 3.06+/-0.68); format: functional
Rattus norvegicus [13] = experiment: Serum creatinine concentration measured after intraperitoneal administration of 10 mg/kg of compound to rats(vehicle 2.13+/-0.27); format: functional
Rattus norvegicus [14] = experiment: Effect on urinary excretion potassium and sodium after oral administration of 1.6 mg/kg to rats(potassium and sodium excretion in control rat is 0.173+/-0.016); format: functional, Urine
Rattus norvegicus [15] = experiment: Ratio of urinary excretion value (urinary volume) in treated rats to that in control rats, at a peroral dose of 1.6 mg/Kg; format: functional, Urine
Rattus norvegicus [16] = experiment: Percent inhibition of serum creatinine by the compound given as ratio of Cr value in treated to vehicle treated ones after intraperitoneal administration of 1 mg/kg of compound to rats(vehicle 3.06+/-0.68); format: functional; details: ip
Rattus norvegicus [17] = experiment: Ratio of sodium ion/potassium ion concentration in treated rats to that in control rats, at a peroral dose of 1.6 mg/Kg; format: functional
Rattus norvegicus [18] = experiment: Ratio of urinary excretion value (Na+ concentration) in treated rats to that in control rats, at a peroral dose of 1.6 mg/Kg; format: functional, Urine
Rattus norvegicus [19] = experiment: Effect on urinary excretion potassium and sodium after oral administration of 25 mg/kg to rats(potassium and sodium excretion in control rat is 0.146+/-0.017); format: functional, Urine
Rattus norvegicus [20] = experiment: Percent inhibition of serum creatinine by the compound given as ratio of Cr value in treated to vehicle treated ones after intraperitoneal administration of 10 mg/kg of compound to rats(vehicle 2.13+/-0.27); format: functional; details: ip
Rattus norvegicus [21] = experiment: Oral diuretic activity was measured after oral administration of 25 mg/kg to rats(control volume is 0.96+/-0.20); format: functional, Urine
Rattus norvegicus [22] = experiment: Urea nitrogen concentration measured after intraperitoneal administration of 1 mg/kg of compound to rats(vehicle 120.9+/-23.3); format: functional
Rattus norvegicus [23] = species on record: Rattus norvegicus; format: functional, Urine; details: dose 1.6 mg/kg; route oral
Rattus norvegicus [24] = experiment: Percent inhibition of Urea nitrogen by the compound given as ratio of UN value in treated to vehicle treated ones after intraperitoneal administration of 1 mg/kg of compound to rats(vehicle 120.9+/-23.3); format: functional; details: ip
Rattus norvegicus [25] = experiment: Serum creatinine concentration measured after intraperitoneal administration of 1 mg/kg of compound to rats(vehicle 3.62+/-0.52); format: functional
Rattus norvegicus [26] = experiment: Serum creatinine concentration measured after intraperitoneal administration of 10 mg/kg of compound to rats(vehicle 3.93+/-0.45); format: functional
Rattus norvegicus [27] = experiment: Urea nitrogen concentration measured after intraperitoneal administration of 1 mg/kg of compound to rats(vehicle 105.2+/-14.9); format: functional
Rattus norvegicus [28] = experiment: Oral diuretic activity was measured after oral administration of 1.6 mg/kg to rats(control volume is 0.96+/-0.09); format: functional, Urine
Rattus norvegicus [29] = experiment: Urea nitrogen concentration measured after intraperitoneal administration of 10 mg/kg of compound to rats(vehicle 129.1+/-14.5); format: functional
Rattus norvegicus [30] = experiment: Effect on urinary excretion potassium and sodium after oral administration of 1.6 mg/kg to rats(potassium and sodium excretion in control rat is 0.147+/-0.015); format: functional, Urine
Adenosine receptor A1 = target: T1, Adenosine receptor A1 (Cavia porcellus, UniProt P47745)
T1 sequence (P47745 whole entry): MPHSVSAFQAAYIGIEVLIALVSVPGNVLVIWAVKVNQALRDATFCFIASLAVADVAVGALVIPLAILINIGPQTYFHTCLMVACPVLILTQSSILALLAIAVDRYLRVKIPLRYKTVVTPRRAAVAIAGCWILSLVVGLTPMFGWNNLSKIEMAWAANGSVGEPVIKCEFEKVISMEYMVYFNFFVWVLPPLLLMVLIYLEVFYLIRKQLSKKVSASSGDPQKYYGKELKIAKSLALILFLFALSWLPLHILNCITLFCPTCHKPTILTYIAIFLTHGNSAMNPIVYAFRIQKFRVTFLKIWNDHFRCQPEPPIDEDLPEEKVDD
Description: Binding affinity against adenosine A1 receptor in guinea pig forebrain membranes using N6-[3H]cyclohexyladenosine as radioligand

Compound: CCCn1c(=O)c2c(nc(C(C3CC3)C3CC3)n2CC)n(CCC)c1=O
Cr (Rattus norvegicus [1]): 4.5 mg/dL
Urine volume (Rattus norvegicus [2]): 2.15 ml 6hr-1 100g-1
inhibition in vivo at 10 mg/kg (Rattus norvegicus [3]): 10%
T/C (Rattus norvegicus [4]): 2.42
Na+/K+ (Rattus norvegicus [5]): 1.51
T/C (Rattus norvegicus [6]): 2.14
T/C (Rattus norvegicus [7]): 1.24
Na (Rattus norvegicus [8]): 0.348 m equiv 6hr-1 100g-1
UN (Rattus norvegicus [9]): 142.7 mg/dL
inhibition in vivo at 10 mg/kg (Rattus norvegicus [10]): 5%
T/C (Rattus norvegicus [11]): 1.19
Ki (Adenosine A2 receptor): 14000 nM

Compound: CCCn1c(=O)c2nc(C3C(C)(C)CCC3(C)C)[nH]c2n(CCC)c1=O
Cr (Rattus norvegicus [12]): 3.03 mg/dL
Cr (Rattus norvegicus [13]): 1.43 mg/dL
Na (Rattus norvegicus [14]): 0.213 m equiv 6hr-1 100g-1
T/C (Rattus norvegicus [15]): 1.42
T/C (Rattus norvegicus [4]): 1.4
inhibition in vivo at 1 mg/kg (Rattus norvegicus [16]): 1%
Na+/K+ (Rattus norvegicus [17]): 1.12
Na+/K+ (Rattus norvegicus [5]): 1.21
T/C (Rattus norvegicus [18]): 1.23
T/C (Rattus norvegicus [6]): 1.18
Na (Rattus norvegicus [19]): 0.172 m equiv 6hr-1 100g-1
inhibition in vivo at 10 mg/kg (Rattus norvegicus [20]): 33%
Urine volume (Rattus norvegicus [21]): 1.34 ml 6hr-1 100g-1
UN (Rattus norvegicus [22]): 113.4 mg/dL
Urine volume (Rattus norvegicus [23]): 1.5 ml 6hr-1 100g-1
inhibition in vivo at 1 mg/kg (Rattus norvegicus [24]): 6%
Ki (Adenosine A2 receptor): > 100000 nM

Compound: Cn1c(=O)c2nc(C(C3CC3)C3CC3)[nH]c2n(C)c1=O
Cr (Rattus norvegicus [25]): 4.1 mg/dL
Cr (Rattus norvegicus [26]): 1.78 mg/dL
T/C (Rattus norvegicus [15]): 0.91
Na+/K+ (Rattus norvegicus [17]): 1.18
T/C (Rattus norvegicus [18]): 1.24
UN (Rattus norvegicus [27]): 121.4 mg/dL
Urine volume (Rattus norvegicus [28]): 0.87 ml 6hr-1 100g-1
UN (Rattus norvegicus [29]): 57.2 mg/dL
Na (Rattus norvegicus [30]): 0.183 m equiv 6hr-1 100g-1
Ki (Adenosine A2 receptor): 2700 nM

Ki (Adenosine receptor A1): 11 nM
Compound: CCCn1c(=O)c2[nH]c(CC3CCCCC3)nc2n(CCC)c1=O
